For assay [1], the target named is T1, human α1G T-type channels (Homo sapiens, UniProt O43497).
T1 construct: expressed in transfected cells; host or cells: HEK 293
Briefly: T-type calcium channel block, whole cell patch clamp in HEK cells (α1G). To be noted: HEK cells, patch clamp, mainly non-inactivated protocol; values above 10 μM shown as 10 μM, below 0.30 μM shown as 0.30 μM; read-out: T-type Calcium Channel Block α1G IC50. In kind it is cell-based. A general note: Patch clamp records ionic current or voltage across a cell membrane.

Assay [2] deals with T2, human α1H T-type channels (Homo sapiens, UniProt O95180).
T2 construct: expressed in transfected cells; host or cells: HEK 293
T2 sequence (O95180 whole entry): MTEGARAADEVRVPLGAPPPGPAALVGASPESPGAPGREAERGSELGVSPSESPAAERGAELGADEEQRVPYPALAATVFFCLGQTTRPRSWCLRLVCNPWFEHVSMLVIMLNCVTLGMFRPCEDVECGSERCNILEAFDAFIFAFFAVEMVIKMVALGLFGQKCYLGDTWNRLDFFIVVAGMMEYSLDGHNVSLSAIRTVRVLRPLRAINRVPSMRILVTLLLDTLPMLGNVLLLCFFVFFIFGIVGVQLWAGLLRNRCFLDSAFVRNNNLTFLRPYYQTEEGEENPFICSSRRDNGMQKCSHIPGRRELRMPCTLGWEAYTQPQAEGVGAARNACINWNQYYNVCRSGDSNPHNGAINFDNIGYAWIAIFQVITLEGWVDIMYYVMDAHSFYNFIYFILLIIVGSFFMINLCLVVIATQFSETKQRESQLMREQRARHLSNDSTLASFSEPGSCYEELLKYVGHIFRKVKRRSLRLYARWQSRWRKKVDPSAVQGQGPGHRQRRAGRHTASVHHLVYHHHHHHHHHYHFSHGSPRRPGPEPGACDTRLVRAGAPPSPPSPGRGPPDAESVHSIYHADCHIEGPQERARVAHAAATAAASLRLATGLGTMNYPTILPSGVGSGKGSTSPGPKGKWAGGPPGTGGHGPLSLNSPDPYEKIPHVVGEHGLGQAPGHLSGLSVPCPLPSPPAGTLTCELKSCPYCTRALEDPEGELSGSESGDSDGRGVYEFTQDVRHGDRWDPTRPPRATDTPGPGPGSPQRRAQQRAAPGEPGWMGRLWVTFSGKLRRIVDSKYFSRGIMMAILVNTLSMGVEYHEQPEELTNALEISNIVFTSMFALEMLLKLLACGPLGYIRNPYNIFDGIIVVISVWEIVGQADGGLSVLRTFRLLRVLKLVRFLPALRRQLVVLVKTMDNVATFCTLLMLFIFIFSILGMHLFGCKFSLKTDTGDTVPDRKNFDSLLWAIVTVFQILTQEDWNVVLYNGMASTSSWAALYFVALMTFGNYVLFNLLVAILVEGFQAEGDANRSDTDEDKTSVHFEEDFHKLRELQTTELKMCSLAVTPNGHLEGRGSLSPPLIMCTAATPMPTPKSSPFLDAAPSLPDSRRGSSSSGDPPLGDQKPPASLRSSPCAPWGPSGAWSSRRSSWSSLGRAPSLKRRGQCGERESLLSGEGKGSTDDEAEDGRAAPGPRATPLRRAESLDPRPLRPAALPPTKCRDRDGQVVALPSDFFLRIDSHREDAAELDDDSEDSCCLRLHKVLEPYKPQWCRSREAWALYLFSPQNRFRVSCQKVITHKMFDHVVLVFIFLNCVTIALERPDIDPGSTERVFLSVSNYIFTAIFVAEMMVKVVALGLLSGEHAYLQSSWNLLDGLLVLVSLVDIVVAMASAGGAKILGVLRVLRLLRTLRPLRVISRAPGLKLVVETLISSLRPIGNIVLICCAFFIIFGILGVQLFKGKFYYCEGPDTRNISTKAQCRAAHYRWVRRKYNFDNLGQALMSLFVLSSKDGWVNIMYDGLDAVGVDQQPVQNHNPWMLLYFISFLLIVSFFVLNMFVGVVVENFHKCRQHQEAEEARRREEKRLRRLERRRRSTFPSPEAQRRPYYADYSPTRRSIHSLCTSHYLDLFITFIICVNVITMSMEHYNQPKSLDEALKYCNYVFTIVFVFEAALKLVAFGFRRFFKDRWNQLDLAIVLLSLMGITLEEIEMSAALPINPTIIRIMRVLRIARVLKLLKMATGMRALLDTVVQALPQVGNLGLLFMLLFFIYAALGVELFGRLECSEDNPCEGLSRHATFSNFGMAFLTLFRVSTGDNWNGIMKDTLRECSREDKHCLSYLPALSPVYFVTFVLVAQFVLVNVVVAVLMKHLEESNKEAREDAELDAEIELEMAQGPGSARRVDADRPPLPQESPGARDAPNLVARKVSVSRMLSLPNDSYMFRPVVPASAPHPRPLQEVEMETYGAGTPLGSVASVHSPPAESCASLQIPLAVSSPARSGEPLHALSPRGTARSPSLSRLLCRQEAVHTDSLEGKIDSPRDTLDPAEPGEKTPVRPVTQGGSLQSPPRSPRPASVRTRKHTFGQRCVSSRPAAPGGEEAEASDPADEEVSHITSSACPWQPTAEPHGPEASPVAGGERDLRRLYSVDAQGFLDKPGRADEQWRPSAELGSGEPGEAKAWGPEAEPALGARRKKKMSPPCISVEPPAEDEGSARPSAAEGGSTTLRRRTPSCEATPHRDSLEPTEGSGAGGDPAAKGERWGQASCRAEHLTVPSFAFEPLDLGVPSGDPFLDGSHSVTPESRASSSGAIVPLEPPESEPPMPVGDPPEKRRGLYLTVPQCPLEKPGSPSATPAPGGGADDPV
Briefly: T-type calcium channel block, whole cell patch clamp in HEK cells (α1H). In kind it is cell-based. The settings on record: HEK cells, patch clamp, mainly non-inactivated protocol; values above 10 μM shown as 10 μM; read-out: T-type Calcium Channel Block α1H IC50.

T1 sequence (O43497 whole entry): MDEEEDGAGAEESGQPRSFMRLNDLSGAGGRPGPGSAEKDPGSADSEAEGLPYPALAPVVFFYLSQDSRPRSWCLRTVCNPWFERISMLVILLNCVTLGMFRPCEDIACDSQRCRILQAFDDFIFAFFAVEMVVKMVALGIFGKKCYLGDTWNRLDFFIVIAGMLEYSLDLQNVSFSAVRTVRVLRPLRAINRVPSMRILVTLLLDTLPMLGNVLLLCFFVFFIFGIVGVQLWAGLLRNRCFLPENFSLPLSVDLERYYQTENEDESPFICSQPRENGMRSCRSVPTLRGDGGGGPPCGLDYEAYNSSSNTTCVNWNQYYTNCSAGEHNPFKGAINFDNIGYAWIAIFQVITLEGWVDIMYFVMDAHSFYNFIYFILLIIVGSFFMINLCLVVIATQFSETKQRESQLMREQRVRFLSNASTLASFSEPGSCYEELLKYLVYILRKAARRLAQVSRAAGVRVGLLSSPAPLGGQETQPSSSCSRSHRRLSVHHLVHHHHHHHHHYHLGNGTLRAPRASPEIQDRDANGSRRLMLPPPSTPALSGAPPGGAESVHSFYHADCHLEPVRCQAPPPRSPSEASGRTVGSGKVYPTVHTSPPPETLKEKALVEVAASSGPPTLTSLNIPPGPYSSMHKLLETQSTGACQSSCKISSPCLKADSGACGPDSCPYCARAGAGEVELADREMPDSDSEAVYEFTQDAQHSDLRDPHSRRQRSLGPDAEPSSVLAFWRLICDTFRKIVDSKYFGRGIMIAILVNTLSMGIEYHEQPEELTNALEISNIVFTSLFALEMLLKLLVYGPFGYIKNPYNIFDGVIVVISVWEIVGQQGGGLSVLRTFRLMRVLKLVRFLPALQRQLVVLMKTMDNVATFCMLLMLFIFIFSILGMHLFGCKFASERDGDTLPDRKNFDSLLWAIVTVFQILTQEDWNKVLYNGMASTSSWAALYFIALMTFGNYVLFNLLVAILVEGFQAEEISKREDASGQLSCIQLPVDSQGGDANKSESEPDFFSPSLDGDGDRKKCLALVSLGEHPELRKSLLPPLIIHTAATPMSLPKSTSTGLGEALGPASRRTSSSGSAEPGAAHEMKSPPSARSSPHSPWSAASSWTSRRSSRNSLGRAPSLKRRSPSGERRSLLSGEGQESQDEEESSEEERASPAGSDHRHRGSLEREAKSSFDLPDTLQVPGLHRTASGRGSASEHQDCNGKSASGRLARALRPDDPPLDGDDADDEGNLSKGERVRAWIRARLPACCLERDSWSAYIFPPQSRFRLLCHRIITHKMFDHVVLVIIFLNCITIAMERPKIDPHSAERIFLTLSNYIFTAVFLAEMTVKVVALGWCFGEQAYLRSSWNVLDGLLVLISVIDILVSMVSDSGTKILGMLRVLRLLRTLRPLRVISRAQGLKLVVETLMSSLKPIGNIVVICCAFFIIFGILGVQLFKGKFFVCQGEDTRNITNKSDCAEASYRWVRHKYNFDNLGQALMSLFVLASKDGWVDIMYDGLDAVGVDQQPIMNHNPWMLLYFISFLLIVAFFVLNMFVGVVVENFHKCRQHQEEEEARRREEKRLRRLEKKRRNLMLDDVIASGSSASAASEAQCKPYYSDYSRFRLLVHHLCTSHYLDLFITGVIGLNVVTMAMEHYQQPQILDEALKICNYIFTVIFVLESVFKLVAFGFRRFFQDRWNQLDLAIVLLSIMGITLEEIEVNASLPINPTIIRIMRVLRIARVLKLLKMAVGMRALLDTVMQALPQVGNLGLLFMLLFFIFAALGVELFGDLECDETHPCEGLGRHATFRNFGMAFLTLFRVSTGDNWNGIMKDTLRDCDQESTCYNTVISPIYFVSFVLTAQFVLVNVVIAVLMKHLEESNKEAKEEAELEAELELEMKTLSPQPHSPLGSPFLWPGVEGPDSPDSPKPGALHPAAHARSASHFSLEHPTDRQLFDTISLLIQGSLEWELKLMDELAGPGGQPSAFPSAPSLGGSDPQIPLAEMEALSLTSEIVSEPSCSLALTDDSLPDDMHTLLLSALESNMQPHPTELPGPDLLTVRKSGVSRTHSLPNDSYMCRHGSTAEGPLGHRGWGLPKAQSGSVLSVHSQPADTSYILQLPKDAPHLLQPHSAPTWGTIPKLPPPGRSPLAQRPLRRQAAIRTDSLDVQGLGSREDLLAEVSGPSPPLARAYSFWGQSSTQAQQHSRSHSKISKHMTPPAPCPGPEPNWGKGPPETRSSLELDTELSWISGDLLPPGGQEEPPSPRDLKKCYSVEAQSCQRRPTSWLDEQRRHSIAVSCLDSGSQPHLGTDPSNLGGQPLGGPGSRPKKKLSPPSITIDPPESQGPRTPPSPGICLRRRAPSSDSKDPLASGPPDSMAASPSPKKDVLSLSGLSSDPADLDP

In general, IC50 refers to the concentration at which inhibition is half-maximal. Regarding `COc1cc(F)cc(C(=O)NCC2CCN(CCNS(=O)(=O)C(C)C)CC2)c1` [Compound 318, 3-fluoro-5-methoxy-N-((1-(2-(1-methylethylsulfonamido)ethyl)piperidin-4-yl)methyl)benzamide], the IC50 in assay [1] was found to be 500 nM; in assay [2], 870 nM.
For `CCCNC(=O)CN1CCC(CNC(=O)c2cc(F)cc(Cl)c2)CC1` [Compound 452, 3-chloro-5-fluoro-N-((1-(2-oxo-2-(propylamino)ethyl)piperidin-4-yl)methyl)benzamide], in that order: 4240 nM and 7920 nM.
The corresponding values for `CC(C)(C)C(=O)NCCN1CCC(CNC(=O)/C=C/c2cc(Cl)cc(Cl)c2)CC1` [Compound 300, (E)-3-(3,5-dichlorophenyl)-N-((1-(2-pivalamidoethyl)piperidin-4-yl)methyl)acrylamide] are 2810 nM and 3250 nM.
For `CC(C)COC(=O)NC1(CN2CCC(CNC(=O)c3cc(C(F)(F)F)cc(C(F)(F)F)c3)CC2)CCCC1` [Compound 18, isobutyl 1-((4-((3,5-bis(trifluoromethyl)benzamido)methyl)piperidin-1-yl)methyl)cyclopentyl-carbamate], the IC50 in assay [1] was less than 300 nM; in assay [2], 80 nM.
For `CC(C)(C)C(CN1CCC(CC(=O)NC(c2cccc(F)c2)c2cccc(F)c2)CC1)NS(=O)(=O)C1CC1` (stereo not shown) [Compound 221, N-(bis(3-fluorophenyl)methyl)-2-(1-(2-(cyclopropanesulfonamido)-3,3-dimethylbutyl)piperidin-4-yl)acetamide], in that order: 4080 nM and more than 10000 nM.
For `O=C(NCC1CCN(CCNC(=O)C2(C(F)(F)F)CC2)CC1)c1cccc(OC(F)(F)F)c1` [Compound 474, 3-(trifluoromethoxy)-N-((1-(2-(1-(trifluoromethyl)cyclopropanecarbox-amido)ethyl)piperidin-4-yl)methyl) benzamide], in that order: less than 300 nM and 40 nM.
For `O=C(/C=C/c1cc(F)cc(F)c1)NCC1CCN(CCNC(=O)CCC(F)(F)F)CC1` [Compound 314, (E)-N-(2-(4-((3-(3,5-difluorophenyl)acrylamido)methyl)piperidin-1-yl)ethyl)-4,4,4-trifluorobutanamide], in that order: more than 10000 nM and 9240 nM.
For `NC1(C(=O)NCCN2CCC(CNC(=O)c3cc(F)cc(C(F)(F)F)c3)CC2)CCC1` [Compound 571, N-((1-(2-(1-aminocyclobutanecarboxamido)ethyl)piperidin-4-yl)methyl)-3-fluoro-5-(trifluoromethyl) benzazmide], the IC50 in assay [1] and in assay [2] was more than 10000 nM each time.
Regarding `CCNC(=O)NC1(CN2CCC(CNC(=O)c3cc(C(F)(F)F)cc(C(F)(F)F)c3)CC2)CCCC1` [Compound 11, N-((1-((1-(3-ethylureido)cyclopentyl)methyl)piperidin-4-yl)methyl)-3,5-bis(trifluoromethyl)benzamide], the values for the IC50 in assay [1] and in assay [2] were 1890 nM and 3800 nM, respectively.
The corresponding values for `CC(C)(C)S(=O)(=O)NCCN1CCC(CNC(=O)c2cc(F)cc(Cl)c2)CC1` [Compound 565, 3-chloro-N-((1-(2-(1,1-dimethylethylsulfonamido)ethyl)piperidin-4-yl)methyl)-5-fluoro-benzamide] are 310 nM and 220 nM.
For `CC(C)(C)OC(=O)NCCN1CCC(CNC(=O)c2cccc(Cl)c2)CC1` [Compound 48, tert-butyl 2-(4-((3-chlorobenzamido)methyl)piperidin-1-yl)ethylcarbamate], in that order: 1570 nM and 790 nM.
The corresponding values for `CC(C)(C)NC(=O)CN1CCC(CNC(=O)c2cc(Cl)cc(C(F)(F)F)c2)CC1` [Compound 380, N-((1-(2-(tert-butylamino)-2-oxoethyl)piperidin-4-yl)methyl)-3-chloro-5-(trifluoromethyl)benzamide] are less than 300 nM and 110 nM.
Consider `CC(C)(C)Oc1cccc(C(=O)NCC2CCN(CCNS(=O)(=O)C3CC3)CC2)c1` [Compound 229, 3-tert-butoxy-N-((1-(2-(cyclopropanesulfonamido)ethyl)piperidin-4-yl)methyl)benzamide], for which the IC50 in assay [1] and in assay [2] was more than 10000 nM in each case.
For `CC(C)(C)NC(=O)NC1(CN2CCC(CNC(=O)c3cc(C(F)(F)F)cc(C(F)(F)F)c3)CC2)CCCC1` [Compound 12, N-((1-((1-(3-tert-butylureido)cyclopentyl)methyl)piperidin-4-yl)methyl)-3,5-bis(trifluoromethyl)benzamide], the IC50 in assay [1] came to 480 nM; in assay [2], 1660 nM.
Regarding `CC(C)(C)C(=O)NCCN1CCC(CNC(=O)c2cc(F)cc(Cl)c2)CC1` [Compound 309, 3-chloro-5-fluoro-N-((1-(2-pivalamidoethyl)piperidin-4-yl)methyl)benzamide], the IC50 in assay [1] was determined as 850 nM; in assay [2], 350 nM.
For `Cc1cc(C)cc(C(=O)NCC2CCN(CCNS(=O)(=O)C3CC3)CC2)c1` [Compound 233, N-((1-(2-(cyclopropanesulfonamido)ethyl)piperidin-4-yl)methyl)-3,5-dimethylbenzamide], in that order: 2040 nM and 1380 nM.
For `O=C(NCC1CCN(C(=O)CNC2CCCCC2O)CC1)c1cc(F)cc(C(F)(F)F)c1` (stereo not shown) [Compound 275, 3-fluoro-N-((1-(2-(2-hydroxycyclohexylamino)acetyl)piperidin-4-yl)methyl)-5-(trifluoromethyl)benzamide], in that order: 1990 nM and more than 10000 nM.
For `CCC1CCCN1CC(=O)N1CCC(CNC(=O)c2cc(F)cc(C(F)(F)F)c2)CC1` (stereo not shown) [Compound 280, N-((1-(2-(2-ethylpyrrolidin-1-yl)acetyl)piperidin-4-yl)methyl)-3-fluoro-5-(trifluoromethyl)benzamide], in that order: 9700 nM and 5590 nM.
`CC1(C(=O)NCCN2CCC(CNC(=O)c3cc(C(F)(F)F)cc(C(F)(F)F)c3)CC2)CC1` [Compound 337, N-((1-(2-(1-methylcyclopropanecarboxamido)ethyl)piperidin-4-yl)methyl)-3,5-bis(trifluoromethyl)benzamide]: the IC50 in assay [1] worked out at 270 nM; in assay [2], 370 nM.
As for `CCNC(=O)N(C)CCN1CCC(CNC(=O)c2cc(F)cc(C(F)(F)F)c2)CC1` [Compound 524, N-((1-(2-(3-ethyl-1-methylureido)ethyl)piperidin-4-yl)methyl)-3-fluoro-5-(trifluoromethyl) benzamide], the IC50 in assay [1] and in assay [2] was more than 10000 nM throughout.
Regarding `CC(C(=O)N1CCC[C@H]1C(F)(F)F)N1CCC(CNC(=O)c2cc(F)cc(Cl)c2)CC1` (stereo partly drawn) [Compound 548, 3-chloro-5-fluoro-N-((1-(1-oxo-1-((S)-2-(trifluoromethyl)pyrrolidin-1-yl)propan-2-yl)piperidin-4-yl)methyl)benzamide], the IC50 in assay [1] is less than 300 nM; in assay [2] it was 160 nM.
For the compound `CS(=O)(=O)c1cc(C(=O)NCC2CCN(CCNC(=O)C3(C(F)(F)F)CCC3)CC2)cc(C(F)(F)F)c1` [Compound 586, 3-(methylsulfonyl)-5-(trifluoro-methyl)-N-((1-(2-(1-(trifluoromethyl)cyclobutane-carboxamido)ethyl)piperidin-4-yl)methyl)benzamide], the IC50 is more than 10000 nM in assay [1] and 4800 nM in assay [2].
With `CC(C)S(=O)(=O)NC(CN1CCC(CC(=O)NC(c2cccc(F)c2)c2cccc(F)c2)CC1)C(C)(C)C` (stereo not shown) [Compound 222, N-(bis(3-fluorophenyl)methyl)-2-(1-(3,3-dimethyl-2-(1-methylethylsulfonamido)butyl)piperidin-4-yl)acetamide], the IC50 is 2030 nM in assay [1] and more than 10000 nM in assay [2].
Turning to `CCC(C)(C)NC(=O)CN1CCC(CNC(=O)c2cc(F)cc(C(F)(F)F)c2)CC1` [Compound 353, 3-fluoro-N-((1-(2-oxo-2-(tert-pentylamino)ethyl)piperidin-4-yl)methyl)-5-(trifluoromethyl)benzamide], the IC50 was less than 300 nM in assay [1] and 60 nM in assay [2].
For `Cc1cc(C)cc(C(=O)NCC2CCN(CCNC(=O)C(C)(C)C(F)(F)F)CC2)c1` [Compound 488, 3,5-dimethyl-N-((1-(2-(3,3,3-trifluoro-2,2-dimethylpropanamido)ethyl)piperidin-4-yl)methyl)benzamide], in that order: 420 nM and 130 nM.
For `O=C(NCC1CCN(CC(=O)N2CCC[C@@H]2C(F)(F)F)CC1)c1cccc(F)c1` [Compound 508, (R)-3-fluoro-N-((1-(2-oxo-2-(2-(trifluoromethyl)pyrrolidin-1-yl)ethyl)piperidin-4-yl)methyl) benzamide], the IC50 in assay [1] was more than 10000 nM; in assay [2], 9220 nM.
For `Cc1cc(C)cc(C(=O)NCC2CCN(CC(=O)N3CCC[C@H]3C(F)(F)F)CC2)c1` [Compound 463, (S)-3,5-dimethyl-N-((1-(2-oxo-2-(2-(trifluoromethyl)pyrrolidin-1-yl)ethyl)piperidin-4-yl)methyl) benzamide], in that order: less than 300 nM and 210 nM.
For `CC1(NC(=O)CN2CCC(CNC(=O)c3ccccc3)CC2)CCC1` [Compound 528, N-((1-(2-(1-methylcyclobutylamino)-2-oxoethyl)piperidin-4-yl)methyl) benzamide], in that order: more than 10000 nM and 8540 nM.
For `O=C(NCC1CCN(C(=O)CN2CCCC(O)C2)CC1)c1cc(C(F)(F)F)cc(C(F)(F)F)c1` (stereo not shown) [Compound 240, N-((1-(2-(3-hydroxypiperidin-1-yl)acetyl)piperidin-4-yl)methyl)-3,5-bis(trifluoromethyl)benzamide], in that order: more than 10000 nM and more than 10000 nM.
